Where “and” joins values, the source holds several entries; their conditions need not be identical. Identical values can stand only once. Inconclusive results and toxic doses are left out. How the source made its calls: active means survival T/C of 150% or more; inactive means T/C below 125% in these data.
System: CD2F1 mice, L1210 leukemia ip, survival T/C
Test: NCI In Vivo Anticancer Drug Screen. Data for tumor model L1210 Leukemia (intraperitoneal) in CD2F1 (CDF1) mice
Conditions: higher = longer survival
Outline: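 Activity against a transplanted murine tumor was judged by comparing the compound group with a vehicle group. The outcome in the treated animals was divided by that in the controls.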

[1] = endpoint: mean survival time, dose: 100.0 mg/kg/injection, schedule: Q01DX009 (ip), vehicle: saline with Tween-80
[2] = endpoint: mean survival time, dose: 100.0 mg/kg/injection, schedule: Q04DX003 (ip), vehicle: saline with Tween-80
[3] = endpoint: mean survival time, dose: 200.0 mg/kg/injection, schedule: Q01DX009 (ip), vehicle: saline with Tween-80
[4] = endpoint: mean survival time, dose: 200.0 mg/kg/injection, schedule: Q04DX003 (ip), vehicle: saline with Tween-80
[5] = endpoint: mean survival time, dose: 400.0 mg/kg/injection, schedule: Q01DX009 (ip), vehicle: saline with Tween-80
[6] = endpoint: mean survival time, dose: 400.0 mg/kg/injection, schedule: Q04DX003 (ip), vehicle: saline with Tween-80
[7] = endpoint: mean survival time, dose: 100.0 mg/kg/injection, schedule: Q04DX002 (ip), vehicle: saline with Tween-80
[8] = endpoint: mean survival time, dose: 200.0 mg/kg/injection, schedule: Q04DX002 (ip), vehicle: saline with Tween-80

Measured: T/C

C1CCC(C2CCCC[N-]2)[N-]C1.CC(C)C([NH-])C(=O)O.[Cl][Pt] (stereo unspecified)
inactive: endpoint: median survival time, dose: 10.0 mg/kg/injection, schedule: Q04DX003 (ip), vehicle: saline 101 % of control | endpoint: median survival time, dose: 20.0 mg/kg/injection, schedule: Q04DX003 (ip), vehicle: saline 102 % of control | endpoint: median survival time, dose: 40.0 mg/kg/injection, schedule: Q04DX003 (ip), vehicle: saline 100 % of control | endpoint: median survival time, dose: 80.0 mg/kg/injection, schedule: Q04DX003 (ip), vehicle: saline 94 % of control and 96 % of control | endpoint: median survival time, dose: 160.0 mg/kg/injection, schedule: Q04DX003 (ip), vehicle: saline 97 % of control

N=Cc1c(O)n(-c2ccccc2)c(=O)[nH]c1=O
inactive: [1] 101 % of control | [2] 94 % of control | [3] 101 % of control | [4] 92 % of control | [5] 104 % of control | [6] 97 % of control

COc1cc(/C=N/N2CCCCC2)cc(OC)c1OC
inactive: [2] 104 % of control | [4] 95 % of control | [6] 111 % of control

CCCCn1c(C)nc2c(N)cc(C(F)(F)F)cc21
inactive: endpoint: mean survival time, dose: 12.5 mg/kg/injection, schedule: Q01DX009 (ip), vehicle: Klucel (hydroxypropylcellulose) (HPC) 100 % of control | endpoint: mean survival time, dose: 25.0 mg/kg/injection, schedule: Q01DX001 (ip), vehicle: Klucel (hydroxypropylcellulose) (HPC) 96 % of control | endpoint: mean survival time, dose: 25.0 mg/kg/injection, schedule: Q01DX009 (ip), vehicle: Klucel (hydroxypropylcellulose) (HPC) 91 % of control | endpoint: mean survival time, dose: 25.0 mg/kg/injection, schedule: Q04DX003 (ip), vehicle: Klucel (hydroxypropylcellulose) (HPC) 96 % of control | endpoint: mean survival time, dose: 50.0 mg/kg/injection, schedule: Q01DX001 (ip), vehicle: Klucel (hydroxypropylcellulose) (HPC) 102 % of control | endpoint: mean survival time, dose: 50.0 mg/kg/injection, schedule: Q01DX009 (ip), vehicle: Klucel (hydroxypropylcellulose) (HPC) 100 % of control | endpoint: mean survival time, dose: 50.0 mg/kg/injection, schedule: Q04DX003 (ip), vehicle: Klucel (hydroxypropylcellulose) (HPC) 100 % of control | endpoint: mean survival time, dose: 100.0 mg/kg/injection, schedule: Q01DX001 (ip), vehicle: Klucel (hydroxypropylcellulose) (HPC) 97 % of control | endpoint: mean survival time, dose: 100.0 mg/kg/injection, schedule: Q01DX009 (ip), vehicle: Klucel (hydroxypropylcellulose) (HPC) 102 % of control | endpoint: mean survival time, dose: 100.0 mg/kg/injection, schedule: Q04DX003 (ip), vehicle: Klucel (hydroxypropylcellulose) (HPC) 93 % of control | endpoint: mean survival time, dose: 200.0 mg/kg/injection, schedule: Q01DX001 (ip), vehicle: Klucel (hydroxypropylcellulose) (HPC) 94 % of control | endpoint: mean survival time, dose: 200.0 mg/kg/injection, schedule: Q04DX003 (ip), vehicle: Klucel (hydroxypropylcellulose) (HPC) 100 % of control

CCS(=O)(=O)CCNCCS(=O)(=O)CC
inactive: [7] 104 % of control | [8] 93 % of control | endpoint: mean survival time, dose: 400.0 mg/kg/injection, schedule: Q04DX002 (ip), vehicle: saline with Tween-80 104 % of control

C/C=C/c1ccc(OC(C)=O)c(OC)c1
inactive: [1] 100 % of control | [2] 94 % of control | [3] 94 % of control | [4] 100 % of control | [5] 105 % of control | [6] 94 % of control

c1ccc2nc(N3CCCCC3)ccc2c1
inactive: endpoint: mean survival time, dose: 25.0 mg/kg/injection, schedule: Q04DX002 (ip), vehicle: saline with Tween-80 94 % of control | endpoint: mean survival time, dose: 50.0 mg/kg/injection, schedule: Q04DX002 (ip), vehicle: saline with Tween-80 94 % of control | [7] 94 % of control

CCOC(=O)c1ccc(N/C(C)=C/C(=O)OC)cc1
inactive: endpoint: mean survival time, dose: 75.0 mg/kg/injection, schedule: Q04DX003 (ip), vehicle: saline 94 % of control | endpoint: mean survival time, dose: 150.0 mg/kg/injection, schedule: Q04DX003 (ip), vehicle: saline 91 % of control

CC(C)(C)OOC(=O)c1ccccn1
inactive: [7] 95 % of control | [8] 95 % of control

COc1ccc(C2=CC(=O)N(C(C)C)C2=O)cc1
inactive: endpoint: mean survival time, dose: 25.0 mg/kg/injection, schedule: Q04DX003 (ip), vehicle: saline with Tween-80 116 % of control | endpoint: mean survival time, dose: 50.0 mg/kg/injection, schedule: Q04DX003 (ip), vehicle: saline with Tween-80 93 % of control | [2] 98 % of control | [4] 108 % of control

OCC1OC(n2ncc3c2ncn2ncnc32)C(O)C1O (stereo unspecified)
inactive: endpoint: mean survival time, dose: 12.5 mg/kg/injection, schedule: Q01DX005 (ip), vehicle: water 90 % of control | endpoint: mean survival time, dose: 25.0 mg/kg/injection, schedule: Q01DX005 (ip), vehicle: water 94 % of control | endpoint: mean survival time, dose: 50.0 mg/kg/injection, schedule: Q01DX005 (ip), vehicle: water 101 % of control | endpoint: mean survival time, dose: 100.0 mg/kg/injection, schedule: Q01DX005 (ip), vehicle: water 100 % of control | endpoint: mean survival time, dose: 200.0 mg/kg/injection, schedule: Q01DX005 (ip), vehicle: water 113 % of control
